From ChEMBL document CHEMBL1201862, “PubChem BioAssay data set” (2004)
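Results reflect a 48-hour exposure of cells in 96-well plates to compound at five concentrations. Here, GI50 denotes the concentration required for 50% inhibition of growth.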 The source made the active and inactive calls. Rule as the data show it: active = GI50 up to about 1.1 µM and inactive = higher.

Experiments:
Assay in all cases: NCI-60 cell line screen, 48 h
[1] = system: CAKI-1
[2] = system: SK-MEL-28
[3] = system: Malme-3M
[4] = system: SF-268
[5] = system: OVCAR-4
[6] = system: HCT-116
[7] = system: A498
[8] = system: HOP-62
[9] = system: RPMI-8226
[10] = system: HL-60
[11] = system: SW-620
[12] = system: OVCAR-5
[13] = system: OVCAR-3
[14] = system: MOLT-4
[15] = system: NCI-H522
[16] = system: U-251
[17] = system: UACC-62
[18] = system: SNB-19
[19] = system: K562
[20] = system: NCI-H226

Compound	GI50 [1]	GI50 [2]	GI50 [3]	GI50 [4]	GI50 [5]	GI50 [6]	GI50 [7]	GI50 [8]	GI50 [9]	GI50 [10]	GI50 [11]	GI50 [12]	GI50 [13]	GI50 [14]	GI50 [15]	GI50 [16]	GI50 [17]	GI50 [18]	GI50 [19]	GI50 [20]
CC(=O)c1c(P(=O)(OC(C)C)OC(C)C)nn(-c2ccc([N+](=O)[O-])cc2)c1C	> 100 µM (inactive)	> 100 µM (inactive)	> 100 µM (inactive)	> 100 µM (inactive)	> 100 µM (inactive)	> 100 µM (inactive)	> 100 µM (inactive)	> 100 µM (inactive)	> 100 µM (inactive)	> 100 µM (inactive)	> 100 µM (inactive)	> 100 µM (inactive)	> 100 µM (inactive)	> 100 µM (inactive)	> 100 µM (inactive)	> 100 µM (inactive)	> 100 µM (inactive)	> 100 µM (inactive)	> 100 µM (inactive)	
O=C1c2cccc3cc4ccccc4c(c23)C(=O)N1CCNCCNCCNCCN1C(=O)c2cccc3cc4ccccc4c(c23)C1=O	< 0.01 µM (active)	< 0.01 µM (active)	0.126 µM (active)	< 0.01 µM (active)	< 0.01 µM (active)	< 0.01 µM (active)	0.19 µM (active)			< 0.01 µM (active)	< 0.01 µM (active)	0.158 µM (active)	< 0.033 µM (active)	< 0.01 µM (active)		< 0.01 µM (active)	< 0.01 µM (active)	< 0.01 µM (active)	< 0.01 µM (active)	33.6 µM (inactive)
NC(CCP(=O)(O)CCC1C=CC=CC1)C(=O)O (stereo not drawn)	> 100 µM (inactive)	> 100 µM (inactive)		> 100 µM (inactive)	> 100 µM (inactive)	> 100 µM (inactive)			> 100 µM (inactive)	> 100 µM (inactive)	> 100 µM (inactive)	> 100 µM (inactive)	> 100 µM (inactive)	> 100 µM (inactive)	20.7 µM (inactive)	> 100 µM (inactive)	> 100 µM (inactive)	> 100 µM (inactive)	> 100 µM (inactive)	
Cc1cccc2nc3cccc(C(=O)NCCN(C)C)c3nc12	0.482 µM (active)	1.01 µM (active)		0.885 µM (active)	0.83 µM (active)	0.293 µM (active)	0.266 µM (active)	0.247 µM (active)		0.461 µM (active)	0.272 µM (active)	1.61 µM (inactive)	1.36 µM (inactive)	0.26 µM (active)		0.492 µM (active)	0.644 µM (active)	0.525 µM (active)	0.363 µM (active)	1.04 µM (active)
Cc1sc2nc3n(c(=O)c2c1C)N=C(c1ccc([N+](=O)[O-])cc1)CS3	> 100 µM (inactive)	> 100 µM (inactive)	> 100 µM (inactive)	> 100 µM (inactive)	> 10 µM (inactive)	> 100 µM (inactive)	> 100 µM (inactive)	61.9 µM (inactive)	> 100 µM (inactive)	> 100 µM (inactive)	> 100 µM (inactive)	> 100 µM (inactive)	> 100 µM (inactive)	> 100 µM (inactive)	> 100 µM (inactive)	> 100 µM (inactive)	> 100 µM (inactive)		> 100 µM (inactive)	> 100 µM (inactive)
CSc1nc(NC2OC(CO)C(O)C(O)C2O)c(N)c(=O)[nH]1 (stereo not drawn)		> 100 µM (inactive)	> 100 µM (inactive)	> 100 µM (inactive)	> 100 µM (inactive)	> 100 µM (inactive)	> 100 µM (inactive)	> 100 µM (inactive)	> 100 µM (inactive)	> 100 µM (inactive)	> 100 µM (inactive)	> 100 µM (inactive)	> 100 µM (inactive)	> 100 µM (inactive)	> 100 µM (inactive)	> 100 µM (inactive)	> 100 µM (inactive)	> 100 µM (inactive)	> 100 µM (inactive)	> 100 µM (inactive)
COc1ccc2c(c1O)-c1cc(O)cc3c1[C@@H](C2)N(C)CC3	12.3 µM (inactive)	80 µM (inactive)	64 µM (inactive)	75.3 µM (inactive)	60.5 µM (inactive)	27 µM (inactive)	49.9 µM (inactive)	32.9 µM (inactive)	75.3 µM (inactive)	11 µM (inactive)	61.8 µM (inactive)	6.41 µM (inactive)	55.8 µM (inactive)	66.1 µM (inactive)	121 µM (inactive)	10.7 µM (inactive)	70 µM (inactive)	101 µM (inactive)	67.6 µM (inactive)	47 µM (inactive)
Cc1ccc(C)c(C(=O)CC2OC(O)C(Cl)C2Cl)c1 (stereo not drawn)	30.4 µM (inactive)	39.5 µM (inactive)	67.5 µM (inactive)	> 100 µM (inactive)	> 100 µM (inactive)	29.7 µM (inactive)	> 100 µM (inactive)	> 100 µM (inactive)	12.4 µM (inactive)	20.6 µM (inactive)	18.7 µM (inactive)	> 100 µM (inactive)	36.6 µM (inactive)	8.65 µM (inactive)	15.6 µM (inactive)	> 100 µM (inactive)	57.3 µM (inactive)	> 100 µM (inactive)	32.5 µM (inactive)	> 100 µM (inactive)
CC(=O)Oc1cc2c(cc1OC(C)=O)OCC(c1ccccc1)C2 (stereo not drawn)	16.4 µM (inactive)	31 µM (inactive)	16.1 µM (inactive)	14.7 µM (inactive)	24 µM (inactive)	27.6 µM (inactive)	7.05 µM (inactive)	19.1 µM (inactive)	8.39 µM (inactive)	3.5 µM (inactive)	6.5 µM (inactive)	33.3 µM (inactive)	22.6 µM (inactive)	5.85 µM (inactive)	2.4 µM (inactive)	7.6 µM (inactive)	19.2 µM (inactive)	15 µM (inactive)	12.1 µM (inactive)	22.2 µM (inactive)
O=C(c1ccccc1)c1ccc2n[se]nc2c1	27.7 µM (inactive)	> 100 µM (inactive)	> 100 µM (inactive)	> 100 µM (inactive)	39.4 µM (inactive)		31.8 µM (inactive)		28.4 µM (inactive)	3.56 µM (inactive)	10.3 µM (inactive)	36.5 µM (inactive)		23.9 µM (inactive)	25.2 µM (inactive)	> 100 µM (inactive)	8.51 µM (inactive)	> 100 µM (inactive)	4.29 µM (inactive)	
N=C(CSS(=O)(=O)O)NC1CC2CCC1C2 (stereo not drawn)	> 100 µM (inactive)	> 100 µM (inactive)	> 100 µM (inactive)	> 100 µM (inactive)	> 100 µM (inactive)	> 100 µM (inactive)	> 100 µM (inactive)	95.7 µM (inactive)	> 100 µM (inactive)	> 100 µM (inactive)	> 100 µM (inactive)		> 100 µM (inactive)	78.2 µM (inactive)	> 100 µM (inactive)	57.8 µM (inactive)	> 100 µM (inactive)	> 100 µM (inactive)	98.6 µM (inactive)	> 100 µM (inactive)
CC(=O)OC/C=C/Cn1ncc(=O)[nH]c1=O	> 100 µM (inactive)	> 100 µM (inactive)	> 100 µM (inactive)	> 100 µM (inactive)			> 100 µM (inactive)	> 100 µM (inactive)	> 100 µM (inactive)	> 100 µM (inactive)	> 100 µM (inactive)	> 100 µM (inactive)	> 100 µM (inactive)	> 100 µM (inactive)	> 100 µM (inactive)	> 100 µM (inactive)		> 100 µM (inactive)	> 100 µM (inactive)	> 100 µM (inactive)
CSc1nc(CO)c(CO)n1C	> 100 µM (inactive)	> 100 µM (inactive)		> 100 µM (inactive)	> 100 µM (inactive)	> 100 µM (inactive)	> 100 µM (inactive)	> 100 µM (inactive)	> 100 µM (inactive)	> 100 µM (inactive)	> 100 µM (inactive)	> 100 µM (inactive)	> 100 µM (inactive)	> 100 µM (inactive)	> 100 µM (inactive)	> 100 µM (inactive)	> 100 µM (inactive)	> 100 µM (inactive)	> 100 µM (inactive)	> 100 µM (inactive)
CCOC(=O)CCC(NC(=O)OCc1ccccc1)C(=O)NC(CCC(=O)OCC)C(=O)NNC(=O)OC(C)(C)C (stereo not drawn)	> 100 µM (inactive)	> 100 µM (inactive)	> 100 µM (inactive)			> 100 µM (inactive)		> 100 µM (inactive)	> 100 µM (inactive)	> 100 µM (inactive)		> 100 µM (inactive)	> 100 µM (inactive)	28.2 µM (inactive)	> 100 µM (inactive)	> 100 µM (inactive)	> 100 µM (inactive)	> 100 µM (inactive)	> 100 µM (inactive)	36.6 µM (inactive)
O=C(Nc1ccccc1F)c1c(O)nc2sccn2c1=O	> 10 µM (inactive)	> 10 µM (inactive)	> 10 µM (inactive)	> 10 µM (inactive)	> 10 µM (inactive)	> 10 µM (inactive)	> 10 µM (inactive)	> 10 µM (inactive)	> 10 µM (inactive)	> 10 µM (inactive)	> 10 µM (inactive)	> 10 µM (inactive)	> 10 µM (inactive)	> 10 µM (inactive)	> 10 µM (inactive)	> 10 µM (inactive)	> 10 µM (inactive)	> 10 µM (inactive)		> 10 µM (inactive)
